Activity calls are given as the source filed them. The rule behind the calls is not given here. Some results are limits rather than exact numbers.

A short description of assay [1]: Induction of ROS generation in methanol solution assessed as increase in singlet oxygen level by measuring reduction in ABDA absorption peak at 10 uM irradiated with 650 nm 10 mW/cm2 light for upto 9 mins by ABDA probe based UV-vis absorption spectra analysis. The class given is functional.
Assay [2] can be described thus: Induction of ROS generation in methanol solution assessed as reduction in DPBF absorption peak at 10 uM irradiated with 650 nm 10 mW/cm2 light for upto 9 mins by DPBF probe based UV-vis absorption spectra analysis. Type of assay: functional.
A short description of assay [3]: Induction of ROS generation in methanol solution assessed as increase in superoxide anion radical level by measuring increase in DHR123 fluorescence intensity at 10 uM irradiated with 650 nm 10 mW/cm2 light for upto 15 mins by DHR123 probe based fluorescence spectra analysis. The class given is functional.
Assay [4] deals with SK-MEL-28. Put plainly: Cytotoxicity against human SK-MEL-28 cells assessed as reduction in cell viability by MTT assay. The class given is functional, cell-based.
Assay [5] has as its system SK-MEL-28. Kind of assay: Cytotoxicity against human SK-MEL-28 cells assessed as reduction in cell viability at 0.008 to 1 uM preincubated for 24 hrs under normoxic condition followed by media removal and irradiated with 650 nm 10 mW/cm2 light for 15 mins under normoxic condition prior to media replacement and measured after 24 hrs by MTT assay. Conditions: dose 0.008-1 µM. The class given is functional, cell-based.

Assay [6] concerns SK-MEL-28. Put plainly: Cytotoxicity against human SK-MEL-28 cells assessed as reduction in cell viability at 0.008 to 1 uM preincubated for 24 hrs under hypoxic condition followed by media removal and irradiated with 650 nm 10 mW/cm2 light for 15 mins under hypoxic condition prior to media replacement and measured after 24 hrs by MTT assay. The class given is functional, cell-based. Conditions: dose 0.008-1 µM. Background: Tetrazolium dyes change colour on reduction, which living cells bring about.

In assay [7] the test system is SK-MEL-28. Kind of assay: Cytotoxicity against human SK-MEL-28 cells assessed as reduction in cell viability preincubated for 24 hrs under hypoxic condition followed by media removal and irradiated with 650 nm 10 mW/cm2 light for 15 mins under hypoxic condition prior to media replacement and measured after 24 hrs by MTT assay. The class given is functional, cell-based. The note with it: SK-MEL-28, light or radiation study.

Assay [8] has as its system SK-MEL-28. Put plainly: Cytotoxicity against human SK-MEL-28 cells assessed as reduction in cell viability preincubated for 24 hrs under normoxic condition followed by media removal and irradiated with 650 nm 10 mW/cm2 light for 15 mins under normoxic condition prior to media replacement and measured after 24 hrs by MTT assay. Type of assay: functional, cell-based. The note with it: SK-MEL-28, light or radiation study.

On to `CCN(CC)c1ccc2nc3c4ccccc4/c(=N\CCCCCCn4cc(CCCC(=O)Nc5cccc(-c6cn(Cc7ccc(-c8ccc(OC)nc8)cc7)nn6)c5)nn4)cc-3sc2c1`, for which the result in assay [1] was inactive. The outcome in assay [2] and in assay [3] was Active.
Regarding `CCN(CC)c1ccc2nc3c4ccccc4/c(=N\CCCCCCn4cc(CCC(=O)Nc5cccc(-c6cn(Cc7ccc(-c8ccc(OC)nc8)cc7)nn6)c5)nn4)cc-3sc2c1`, in assay [1], the outcome was inactive. The outcome in assay [2] and in assay [3] was Active.
For the compound `CNC(=O)c1cc(Oc2ccc(NC(=O)Nc3ccc(Cl)c(C(F)(F)F)c3)cc2)ccn1` [SORAFENIB], in the assay on SK-MEL-28 [4], the IC50 is 9.49 µM.
`CCN(CC)c1ccc2nc3c4ccccc4/c(=N\CCCCCC(=O)NCCNC(=O)c4cc(Oc5ccc(NC(=O)Nc6ccc(Cl)c(C(F)(F)F)c6)cc5)ccn4)cc-3sc2c1`: the outcome in assay [1] was inactive. Besides, the result (in assay [2]; in the assay on SK-MEL-28 [5]; in the assay on SK-MEL-28 [6]; in assay [3]) was Active.
For the compound `CCN(CC)c1ccc2nc3c4ccccc4/c(=N\CCCCCCNC(=O)CCC(=O)Nc4cccc(-c5cn(Cc6ccc(-c7ccc(OC)nc7)cc6)nn5)c4)cc-3sc2c1`, the result in assay [1] was inactive. Besides, the result in assay [2] and in assay [3] was Active.
`CCN(CC)c1ccc2nc3c4ccccc4/c(=N\CCCCCCn4cc(CNC(=O)c5cc(Oc6ccc(NC(=O)Nc7ccc(Cl)c(C(F)(F)F)c7)cc6)ccn5)nn4)cc-3sc2c1`: in assay [1], the outcome was inactive. For the same compound, the outcome (in assay [2]; in the assay on SK-MEL-28 [5]; with SK-MEL-28 [6]; in assay [3]) was Active.
As to `CCN(CC)c1ccc2nc3c4ccccc4/c(=N\CCCCCC(=O)O)cc-3sc2c1`, in assay [1], the result was inactive. The outcome in assay [2] and in assay [3] was Active.
For `CCN(CC)c1ccc2nc3c4ccccc4/c(=N\CCCCCCN=[N+]=[N-])cc-3sc2c1`, the result in assay [1] was inactive. In addition, the outcome in assay [2] and in assay [3] was Active.
Take `CCN(CC)c1ccc2nc3c4ccccc4/c(=N\CCCCCCn4cc(CCCCNC(=O)c5cc(Oc6ccc(NC(=O)Nc7ccc(Cl)c(C(F)(F)F)c7)cc6)ccn5)nn4)cc-3sc2c1`: the result in assay [1] was inactive. Also, the outcome (in assay [2]; with SK-MEL-28 [5]; in the assay on SK-MEL-28 [6]; in assay [3]) was Active.
Take `CCN(CC)c1ccc2nc3c4ccccc4/c(=N\CCCCCC(=O)Nc4cccc(-c5cn(Cc6ccc(-c7ccc(OC)nc7)cc6)nn5)c4)cc-3sc2c1`: the outcome in assay [1] was inactive. The outcome in assay [2] and in assay [3] was Active.
Regarding `CCN(CC)c1ccc2nc3c4ccccc4/c(=N\CCCCCCN)cc-3sc2c1`, the IC50 in the assay with SK-MEL-28 [7] was greater than 20 µM; with SK-MEL-28 [8], 14.2 µM. For the same compound, the outcome in assay [1] was inactive. Further, the result in assay [2] and in assay [3] was Active.
On to `CCN(CC)c1ccc2nc3c4ccccc4/c(=N\CCCCCCNC(=O)CC(=O)Nc4cccc(-c5cn(Cc6ccc(-c7ccc(OC)nc7)cc6)nn5)c4)cc-3sc2c1`, for which, in assay [1], the result was inactive. Moreover, the outcome in assay [2] and in assay [3] was Active.
Regarding `CCN(CC)c1ccc2nc3c4ccccc4/c(=N\CCCCCCn4cc(CCNC(=O)c5cc(Oc6ccc(NC(=O)Nc7ccc(Cl)c(C(F)(F)F)c7)cc6)ccn5)nn4)cc-3sc2c1`, the result in assay [1] was inactive. Besides, the result (in assay [2]; in the assay on SK-MEL-28 [5]; in the assay with SK-MEL-28 [6]; in assay [3]) was Active.
As for `CCN(CC)c1ccc2nc3c4ccccc4/c(=N\CCCCCC(=O)NCCCNC(=O)c4cc(Oc5ccc(NC(=O)Nc6ccc(Cl)c(C(F)(F)F)c6)cc5)ccn4)cc-3sc2c1`, the outcome in assay [1] was inactive. Moreover, the result (in assay [2]; in the assay with SK-MEL-28 [5]; in the assay on SK-MEL-28 [6]; in assay [3]) was Active.

The IC50 is the point on the concentration scale where inhibition reaches its midpoint.

Source of the values: ChEMBL document CHEMBL5579815, “Novel angiogenesis inhibitors with superoxide anion radical amplification effect: Surmounting the Achilles' heels of angiogenesis inhibitors and photosensitizers” (Eur J Med Chem, 2024).
